# Measured values as given in patent publication US10882856B2 (BeiGene, Ltd., priority 2017, dated 2021).
# Experiments:
# [1] = biological target: T1, cellular TDO2 in HEK293-TDO2 cells (Homo sapiens, UniProt P48775); test: 293-TDO2 cell-based assay (Kyn colorimetric); conditions: 48 hours of incubation
# T1 construct: expressed in transfected cells; host or cells: HEK293 (ATCC), stably transfected
# Method in brief: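 Kyn formed from L-Trp was read colorimetrically at 480 nm (TCA deproteinisation, then 2% 4-(dimethylamino)benzaldehyde). Compounds were added to 293-TDO2 cells 4 h post-seeding and left 48 h at 37° C. A four-parameter logistic model gave IC50 values.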
# IDO1 [2] = biological target: T2, IDO1 (Homo sapiens, UniProt P14902); test: IDO1 enzymatic assay; format: biochemical; parameters: His tag (N); made in house; host or cells: E. coli; conditions: read-out: Enzyme IC50 IDO1
# Method in brief: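 Assays were run in 50 mM potassium phosphate pH 7.5 with 0.1% BSA for 1.5 hours at 24 °C. Each contained 50 nM E. coli-purified, N-terminally His-tagged IDO1, compound, 1.3 mM D-tryptophan, 5 mM L-ascorbic acid, methylene blue and 0.4 mg/mL catalase. IC50 was calculated from remaining enzyme activity across a rising compound series, with activity taken as the slope of N'-formylkynurenine formation read continuously at 321 nm for 1 hour.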
# IDO1 [3] = biological target: T2, IDO1; test: Hela cell-based IDO1 assay; conditions: Hela cells
# Method in brief: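 HeLa cells were seeded at 8000 per well in 96-well plates in phenol red-free DMEM with 10% FBS. After 4 hours, DMSO-diluted compound dilutions were added with IFN-γ (final 100 ng/mL) and 0.4 mM L-Trp, and cells were kept 48 hours at 37 °C, 5% CO2. Supernatant was deproteinised with trichloroacetic acid, and kynurenine was measured at 480 nm after adding 2% 4-(dimethylamino)benzaldehyde. Potency came from four-parameter logistic fits in XLfit.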
# TDO = biological target: T3, TDO (Homo sapiens, UniProt P48775); test: TDO enzymatic assay; format: biochemical; conditions: read-out: Enzyme IC50 TDO
# T3 construct: His tag (C); made in house; host or cells: E. coli
# Method in brief: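 Recombinant C-terminally His-tagged TDO purified from E. coli (100 nM) was tested with 0.5 mM L-tryptophan (Km concentration). Otherwise the IDO1 enzymatic set-up was used: ascorbic acid, methylene blue, catalase, and potassium phosphate pH 7.5 with BSA, incubated 1.5 hours. N'-formylkynurenine absorbance was read continuously at 321 nm, and activity was taken as the slope. IC50 was calculated from remaining enzyme activity across increasing compound concentrations.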
# T2 sequence (P14902 whole entry): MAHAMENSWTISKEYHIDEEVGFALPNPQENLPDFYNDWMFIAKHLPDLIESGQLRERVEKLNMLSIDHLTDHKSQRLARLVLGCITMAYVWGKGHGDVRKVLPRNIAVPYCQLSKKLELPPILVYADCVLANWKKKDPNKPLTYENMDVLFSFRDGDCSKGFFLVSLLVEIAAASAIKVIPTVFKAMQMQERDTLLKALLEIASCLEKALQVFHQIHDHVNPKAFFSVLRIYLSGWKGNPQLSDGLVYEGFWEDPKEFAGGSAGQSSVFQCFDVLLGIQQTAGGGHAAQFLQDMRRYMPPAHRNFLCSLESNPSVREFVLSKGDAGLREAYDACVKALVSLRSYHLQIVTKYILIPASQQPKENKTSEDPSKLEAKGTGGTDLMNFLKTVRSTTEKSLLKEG
# T3 sequence (P48775 whole entry): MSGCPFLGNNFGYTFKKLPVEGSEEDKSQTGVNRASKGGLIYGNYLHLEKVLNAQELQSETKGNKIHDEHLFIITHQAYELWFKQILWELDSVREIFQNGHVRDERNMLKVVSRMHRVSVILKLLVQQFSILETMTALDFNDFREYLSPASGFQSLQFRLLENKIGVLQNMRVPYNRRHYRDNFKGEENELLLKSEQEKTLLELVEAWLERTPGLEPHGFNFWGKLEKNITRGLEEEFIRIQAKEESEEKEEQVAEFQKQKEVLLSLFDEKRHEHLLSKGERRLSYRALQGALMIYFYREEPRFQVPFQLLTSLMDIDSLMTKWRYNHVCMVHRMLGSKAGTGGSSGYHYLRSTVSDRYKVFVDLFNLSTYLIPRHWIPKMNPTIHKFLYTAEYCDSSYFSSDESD
# T1 sequence (P48775 whole entry): as above
smiles,measurement,setting,value
"O[C@H](c1c(C2CC2)ccn2cncc12)[C@H]1CC[C@H](c2ccc(F)cc2)CC1 (single isomer, unassigned) [Example C107a]",EC50,[1],> 10000 nM
same,IC50,IDO1 [2],31 nM
same,EC50,IDO1 [3],109 nM
same,IC50,TDO,6500 nM
"O[C@H](c1c(C2CC2)ccn2cncc12)[C@H]1CC[C@H](c2ccc(OC(F)(F)F)cc2)CC1 (single isomer, unassigned) [Example C105a]",EC50,[1],> 10000 nM
same,IC50,IDO1 [2],48 nM
same,EC50,IDO1 [3],1140 nM
same,IC50,TDO,9100 nM
"O[C@H](c1cc(Cl)cc2cncn12)[C@H]1CC[C@H](c2ccc(Cl)cc2)CC1 (single isomer, unassigned) [Example E101a]",EC50,[1],> 10000 nM
same,IC50,IDO1 [2],27 nM
same,EC50,IDO1 [3],2530 nM
same,IC50,TDO,1700 nM
"O[C@H](c1c(C2CC2)ccn2cncc12)[C@H]1CC[C@H](c2ccccc2F)CC1 (single isomer, unassigned) [Example C108a]",EC50,[1],> 10000 nM
same,IC50,IDO1 [2],28 nM
same,EC50,IDO1 [3],112 nM
same,IC50,TDO,5100 nM
"O[C@H](c1c(C2CC2)ccc2cncn12)[C@H]1CC[C@H](c2ccnc3ccccc32)CC1 (single isomer, unassigned) [Example D140a]",EC50,[1],> 10000 nM
same,IC50,IDO1 [2],20 nM
same,EC50,IDO1 [3],38 nM
same,IC50,TDO,11000 nM
"Cn1cc(-c2ccc(N3CCC(C(O)c4c(C5CC5)ccn5cncc45)CC3)cc2)cn1 (stereo not shown) [Example C152, (7-cyclopropylimidazo[1,5-a]pyridin-8-yl)(1-(4-(1-methyl-1H-pyrazol-4-yl)phenyl)piperidin-4-yl)methanol]",EC50,[1],> 10000 nM
same,IC50,IDO1 [2],29 nM
same,EC50,IDO1 [3],520 nM
same,IC50,TDO,3300 nM
"OC(c1c(C2CC2)ccc2cncn12)[C@H]1CC[C@H](c2ccc3ccsc3c2)CC1 (single isomer, unassigned) [Example D134a]",EC50,[1],> 10000 nM
same,IC50,IDO1 [2],15 nM
same,EC50,IDO1 [3],135 nM
same,IC50,TDO,6100 nM
"O[C@@H](c1cc(Cl)cc2cncn12)[C@H]1CC[C@H](c2ccc3ccccc3c2)CC1 (single isomer, unassigned) [Example E104b]",EC50,[1],> 10000 nM
same,IC50,IDO1 [2],3500 nM
same,EC50,IDO1 [3],> 10000 nM
same,IC50,TDO,1400 nM
"O[C@H](c1c(C2CC2)ccn2cncc12)[C@H]1CC[C@H](c2ccc(OC3CCCC3)cc2)CC1 (single isomer, unassigned) [Example C118a]",EC50,[1],> 10000 nM
same,IC50,IDO1 [2],63 nM
same,EC50,IDO1 [3],147 nM
same,IC50,TDO,6200 nM
"COc1ccc([C@H]2CC[C@H]([C@H](O)c3c(C4CC4)ccn4cncc34)CC2)cc1 [Example C101a, (S)-(7-cyclopropylimidazo[1,5-a]pyridin-8-yl)(4-(4-methoxyphenyl)cyclohexyl)methanol]",EC50,[1],> 10000 nM
same,IC50,IDO1 [2],17 nM
same,EC50,IDO1 [3],110 nM
same,IC50,TDO,4200 nM
"O[C@H](c1c(C2CC2)ccc2cncn12)[C@H]1CC[C@H](c2ccc(OC(F)(F)F)cc2)CC1 (single isomer, unassigned) [Example D105a]",EC50,[1],> 10000 nM
same,IC50,IDO1 [2],44 nM
same,EC50,IDO1 [3],631 nM
same,IC50,TDO,11000 nM
"OCCn1cc(-c2ccc(N3CCC(C(O)c4c(C5CC5)ccn5cncc45)CC3)cc2)cn1 (stereo not shown) [Example C153, 2-(4-(4-(4-((7-cyclopropylimidazo[1,5-a]pyridin-8-yl)(hydroxy)methyl)piperidin-1-yl)phenyl)-1H-pyrazol-1-yl)ethan-1-ol]",EC50,[1],> 10000 nM
same,IC50,IDO1 [2],47 nM
same,EC50,IDO1 [3],1050 nM
same,IC50,TDO,6700 nM
"O[C@H](c1c(C2CC2)ccc2cncn12)[C@H]1CC[C@H](c2ccc(F)c3ccccc32)CC1 (single isomer, unassigned) [Example D137a]",EC50,[1],> 10000 nM
same,IC50,IDO1 [2],19 nM
same,EC50,IDO1 [3],36 nM
same,IC50,TDO,7400 nM
"O[C@H](c1c(C2CC2)ccc2cncn12)[C@H]1CC[C@H](c2cccc3ccccc32)CC1 (single isomer, unassigned) [Example D135a]",EC50,[1],> 10000 nM
same,IC50,IDO1 [2],25 nM
same,EC50,IDO1 [3],32 nM
same,IC50,TDO,11000 nM
"O[C@H](c1c(C2CC2)ccc2cncn12)[C@H]1CC[C@H](c2ccc(-c3ccccc3)cc2)CC1 (single isomer, unassigned) [Example D119a]",EC50,[1],> 10000 nM
same,IC50,IDO1 [2],34 nM
same,EC50,IDO1 [3],344 nM
same,IC50,TDO,5100 nM
"CC(C)c1ccc2cncn2c1[C@@H](O)[C@H]1CC[C@H](c2ccc(Cl)cc2)CC1 (single isomer, unassigned) [Example D115a]",EC50,[1],> 10000 nM
same,IC50,IDO1 [2],34 nM
same,EC50,IDO1 [3],83 nM
same,IC50,TDO,10000 nM
"O[C@H](c1c(C2CC2)ccn2cncc12)[C@H]1CC[C@H](c2ccc(C(F)(F)F)nc2)CC1 (single isomer, unassigned) [Example C120a]",EC50,[1],> 10000 nM
same,IC50,IDO1 [2],39 nM
same,EC50,IDO1 [3],1100 nM
same,IC50,TDO,7400 nM
"Oc1ccc([C@H]2CC[C@H](C(O)c3c(C4CC4)ccn4cncc34)CC2)cc1 (single isomer, unassigned) [Example C104a]",EC50,[1],> 10000 nM
same,IC50,IDO1 [2],18 nM
same,EC50,IDO1 [3],50 nM
same,IC50,TDO,2500 nM
"O[C@H](c1c(C2CC2)ccn2cncc12)[C@H]1CC[C@H](c2cccc(F)c2)CC1 (single isomer, unassigned) [Example C109a]",EC50,[1],> 10000 nM
same,IC50,IDO1 [2],43 nM
same,EC50,IDO1 [3],49 nM
same,IC50,TDO,8500 nM
"O[C@H](c1c(C2CC2)ccc2cncn12)[C@H]1CC[C@H](c2ccc(Oc3ccccc3)cc2)CC1 (single isomer, unassigned) [Example D120a]",EC50,[1],> 10000 nM
same,IC50,IDO1 [2],80 nM
same,EC50,IDO1 [3],370 nM
same,IC50,TDO,6700 nM
"COc1ccc([C@H]2CC[C@H]([C@H](O)c3c(C4CC4)ccc4cncn34)CC2)cc1 (single isomer, unassigned) [Example D102a]",EC50,[1],> 10000 nM
same,IC50,IDO1 [2],14 nM
same,EC50,IDO1 [3],29 nM
same,IC50,TDO,5300 nM
"O[C@H](c1cc(Cl)cc2cncn12)[C@H]1CC[C@H](c2cccc3ccccc32)CC1 (single isomer, unassigned) [Example E103a]",EC50,[1],> 10000 nM
same,IC50,IDO1 [2],17 nM
same,EC50,IDO1 [3],777 nM
same,IC50,TDO,1400 nM
"O[C@H](c1c(C2CC2)ccc2cncn12)[C@H]1CC[C@H](c2cccc(F)c2)CC1 (single isomer, unassigned) [Example D156a]",EC50,[1],> 10000 nM
same,IC50,IDO1 [2],20 nM
same,EC50,IDO1 [3],31 nM
same,IC50,TDO,12000 nM
"Cc1ccccc1[C@H]1CC[C@H]([C@H](O)c2c(C3CC3)ccn3cncc23)CC1 (single isomer, unassigned) [Example C112a]",EC50,[1],> 10000 nM
same,IC50,IDO1 [2],40 nM
same,EC50,IDO1 [3],183 nM
same,IC50,TDO,5100 nM
"O[C@@H](c1c(C2CC2)ccc2cncn12)[C@H]1CC[C@@H](c2ccc(OC3CCOCC3)cc2)CC1 [Example D114a, (R)-(6-cyclopropylimidazo[1,5-a]pyridin-5-yl)((1 s,4S)-4-(4-((tetrahydro-2H-pyran-4-yl)oxy)phenyl)cyclohexyl)methanol]",EC50,[1],> 10000 nM
same,IC50,IDO1 [2],17 nM
same,EC50,IDO1 [3],572 nM
same,IC50,TDO,1700 nM
"O[C@H](c1c(C2CC2)ccc2cncn12)[C@H]1CC[C@H](c2ccc3ccccc3c2)CC1 (single isomer, unassigned) [Example D136a]",EC50,[1],> 10000 nM
same,IC50,IDO1 [2],21 nM
same,EC50,IDO1 [3],254 nM
same,IC50,TDO,16000 nM
"Oc1ccc([C@H]2CC[C@H](C(O)c3c(C4CC4)ccc4cncn34)CC2)cc1 (single isomer, unassigned) [Example D106a]",EC50,[1],> 10000 nM
same,IC50,IDO1 [2],11 nM
same,EC50,IDO1 [3],21 nM
same,IC50,TDO,4000 nM
"O[C@H](c1c(C2CC2)ccc2cncn12)[C@H]1CC[C@H](c2ccccc2)CC1 (single isomer, unassigned) [Example D101a]",EC50,[1],> 10000 nM
same,IC50,IDO1 [2],14 nM
same,EC50,IDO1 [3],35 nM
same,IC50,TDO,9200 nM
"O[C@H](c1c(C2CC2)ccn2cncc12)[C@H]1CC[C@H](c2ccc(Cl)cc2)CC1 (single isomer, unassigned) [Example C102a]",EC50,[1],> 10000 nM
same,IC50,IDO1 [2],36 nM
same,EC50,IDO1 [3],471 nM
same,IC50,TDO,16000 nM
"CC(=O)c1ccc([C@H]2CC[C@H]([C@H](O)c3c(C4CC4)ccn4cncc34)CC2)cc1 [Example C125, 1-(4-((1 S,4r)-4-((S)-(7-cyclopropylimidazo[1,5-a]pyridin-8-yl)(hydroxy)methyl)cyclohexyl)phenyl)ethan-1-one]",EC50,[1],> 10000 nM
same,IC50,IDO1 [2],41 nM
same,EC50,IDO1 [3],915 nM
same,IC50,TDO,6100 nM
"O[C@H](c1c(C2CC2)ccn2cncc12)[C@H]1CC[C@H](c2cccc3ccccc32)CC1 (single isomer, unassigned) [Example C121a]",EC50,[1],> 10000 nM
same,IC50,IDO1 [2],39 nM
same,EC50,IDO1 [3],59 nM
same,IC50,TDO,3600 nM
